Drawing on patent publication US8404680B2, “N-[3-(5-amino-3,3a,7,7a-tetrahydro-1H-2,4-dioxa-6-aza-inden-7-yl)-phenyl]-amides as BACE1 and/or BACE2 inhibitors” (Hoffmann-La Roche Inc., priority 2011, dated 2013), this text covers IC50 for three compounds.

For one assay, the target named is T1, BACE1 (Homo sapiens, UniProt P56817).
T1 construct: Human HEK293 cells which are stably transfected with a vector expressing a cDNA of the human APP wt gene (APP695); endogenous in cells; host or cells: HEK293 (human), stably transfected with human APP695 wt
T1 sequence (P56817 46-501): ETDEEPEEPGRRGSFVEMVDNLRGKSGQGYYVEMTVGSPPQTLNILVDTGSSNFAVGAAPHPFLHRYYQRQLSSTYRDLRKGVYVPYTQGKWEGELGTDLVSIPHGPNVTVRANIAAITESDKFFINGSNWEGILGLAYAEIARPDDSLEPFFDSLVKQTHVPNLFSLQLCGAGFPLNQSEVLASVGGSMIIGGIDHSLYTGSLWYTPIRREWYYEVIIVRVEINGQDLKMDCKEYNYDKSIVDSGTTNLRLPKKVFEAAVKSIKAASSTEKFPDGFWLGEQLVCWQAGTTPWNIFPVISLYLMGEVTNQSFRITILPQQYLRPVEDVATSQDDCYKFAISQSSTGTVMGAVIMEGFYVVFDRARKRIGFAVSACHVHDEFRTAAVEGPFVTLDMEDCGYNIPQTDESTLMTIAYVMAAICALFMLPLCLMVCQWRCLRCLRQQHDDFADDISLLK
As to the kind of experiment: Cellular Aβ-lowering assay. In kind it is cell-based. As to conditions: human HEK293 cells stably expressing human APP wt (APP695); Aβ40 in supernatant by ELISA after 18-20 hrs. The protocol: Cellular Aβ-Lowering Assay:
Human HEK293 cells which are stably transfected with a vector expressing a cDNA of the human APP wt gene (APP695) were used to assess the potency of the compounds in a cellular assay. The cells were seeded in 96-well microtiter plates in cell culture medium (Iscove, plus 10% (v/v) fetal bovine serum, glutamine, penicillin/streptomycin) to about 80% confluence and the compounds were added at a 10× concentration in 1/10 volume of medium without FCS containing 8% DMSO (final concentration of DMSO was kept at 0.8% v/v). After 18-20 hrs incubation at 37° C. and 5% CO2 in a humidified incubator the culture supernatant was harvested for the determination of Aβ40 concentrations. 96well ELISA plates (e.g., Nunc MaxiSorb) were coated with monoclonal antibody which specifically recognize the C-terminal end of Aβ40 (Brockhaus et al., NeuroReport 9, 1481-1486; 1998). After blocking of non-specific binding sites with e.g. 1% BSA and washing, the culture supernatants were added in suitable dilutions together with a horseradish peroxidase-coupled Aβ detection antibody (e.g., antibody 4G8, Senetek, Md. Heights, Mo.) and incubated for 5 to 7 hrs. Subsequently the wells of the microtiter plate were washed extensively with Tris-buffered saline containing 0.05% Tween 20 and the assay was developed with tetramethylbenzidine/H2O2 in citric acid buffer. After stopping the reaction with one volume 1 NH2SO4 the reaction was measured in an ELISA reader at 450 nm wavelength. The concentrations of Aβ in the culture supernatants were calculated from a standard curve obtained with known amounts of pure Aβ peptide.

For a further assay, the target named is T2, BACE2 (Rattus norvegicus, UniProt Q6IE75).
T2 construct: endogenous cellular BACE2 in the Ins1e rat cell line; endogenous in cells; host or cells: INS-TMEM27 (INS1e-derived rat cell line, TetOn-inducible full-length hTMEM27)
T2 sequence (Q6IE75 63-514): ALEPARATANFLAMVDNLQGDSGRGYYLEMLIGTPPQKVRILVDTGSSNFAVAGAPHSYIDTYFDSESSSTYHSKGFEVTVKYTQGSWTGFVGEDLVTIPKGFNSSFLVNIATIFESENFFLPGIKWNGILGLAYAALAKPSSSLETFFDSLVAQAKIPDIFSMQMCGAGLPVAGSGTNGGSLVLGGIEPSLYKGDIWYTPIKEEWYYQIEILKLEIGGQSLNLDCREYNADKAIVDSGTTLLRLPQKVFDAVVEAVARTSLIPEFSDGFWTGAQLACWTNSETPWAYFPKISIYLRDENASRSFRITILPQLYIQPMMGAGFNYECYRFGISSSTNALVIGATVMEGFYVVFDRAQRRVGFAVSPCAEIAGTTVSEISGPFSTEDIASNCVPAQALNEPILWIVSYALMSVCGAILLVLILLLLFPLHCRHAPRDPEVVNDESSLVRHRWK
Description: Assay for BACE inhibition by measuring cellular TMEM27 cleavage. Conditions: INS-TMEM27 (INS1e-derived rat cell line, inducible hTMEM27); shed TMEM27 in medium by ELISA. In kind it is cell-based. The text has this: Assay for BACE Inhibition by Measuring Cellular TMEM27 Cleavage:
The assay uses the principle of inhibition of human TMEM27 cleavage by endogenous cellular BACE2 in the Ins1e rat cell line and shedding from the cell surface into the culture medium, followed by detection in an ELISA assay Inhibition of BACE2 prevents the cleavage and shedding in a dose-dependent manner.
The stable cell line “INS-TMEM27” represents an INS1e-derived cell line with inducible expression (using the TetOn system) of full-length hTMEM27 in a doxycycline-dependent manner. The cells are cultured throughout the experiment in RPMI1640+ Glutamax (Invitrogen) Penicillin/Streptomycin, 10% Fetal bovine serum, […], […], 100 micrograms/ml G418 and 100 microgram/ml hygromycin and are grown inadherent culture at 37° C. in a standard CO2 cell culture incubator.
INS-TMEM27 cells are seeded in 96-well plates. After 2 days in culture, BACE2 inhibitor is added in a range of concentrations as required by the assay and after a further two hours, doxycycline is added to a final concentration of 500 ng/ml. The cells are incubated for a further 46 hours and the supernatant harvested for detection of shed TMEM27.
An ELISA assay (using a pair of mouse anti-human-TMEM27 antibodies, raised against the extracellular domain of TMEM27) is used for detection of TMEM27 in the culture medium. An EC50 for BACE2 inhibition is calculated using the ELISA readout for each inhibitor concentration with standard curve-fitting software such as XLFit for the Excel spreadsheet program.
(In an ELISA, binding on a coated surface is turned into a signal by an enzyme label.)

pIC50: −log10 of the molar value.

Take `C[C@]1(c2cc(NC(=O)c3ccccn3)ccc2F)N=C(N)O[C@@H]2COC[C@@H]21` [Example 5, Pyridine-2-carboxylic acid [3-((3aS,7S,7aS)-5-amino-7-methyl-3,3a,7,7a-tetrahydro-4H-2,4-dioxa-6-aza-inden-7-yl)-4-fluoro-phenyl]-amide]: the figures for the pIC50 against BACE1 and on BACE2 were 8.10 and 7.43, respectively.
For the compound `C[C@]1(c2cc(NC(=O)c3ccc(OCC(F)(F)F)cn3)ccc2F)N=C(N)O[C@@H]2COC[C@@H]21` [Example 6, 5-(2,2,2-Trifluoro-ethoxy)-pyridine-2-carboxylic acid [3-((3aS,7S,7aS)-5-amino-7-methyl-3,3a,7,7a-tetrahydro-4H-2,4-dioxa-6-aza-inden-7-yl)-4-fluoro-phenyl]-amide], the results for the pIC50 on BACE1 and against BACE2 were 8.22 and 6.25, respectively.
The corresponding values for `C[C@]1(c2cc(NC(=O)c3cnc(OCC(F)(F)F)cn3)ccc2F)N=C(N)O[C@@H]2COC[C@@H]21` [Example 8, 5-(2,2,2-Trifluoro-ethoxy)-pyrazine-2-carboxylic acid [3-((3aS,7S,7aS)-5-amino-7-methyl-3,3a,7,7a-tetrahydro-1H-2,4-dioxa-6-aza-inden-7-yl)-4-fluoro-phenyl]-amide] are 8.74 and 6.68.

By pIC50 is commonly meant the IC50 on a negative log10 scale, so that one unit is a factor of ten.
